In US9309222B2, “Phenyl linked quinolinyl modulators of RORγt” (Janssen Pharmaceutica NV, priority 2012, dated 2016):
pIC50, pKd: −log10 of the molar value. Several values for one entry are separate records, joined by “and”; a condition that tells them apart may be missing. Equal entries are not always repeated. Structures can show the parent of a compound that is named as a salt.

Columns and labels:
[1] = biological target: T1, human RORγt ligand binding domain (RORγt LBD) (Homo sapiens, UniProt P51449); assay: RORγt ThermoFluor assay (thermal shift, ligand binding affinity); conditions: estimated from concentration response of thermal shift
T1 construct: His-tag (N); TurboTEV protease cleavage site (ENLYFQG) (N); made in house; host or cells: E. coli (pHIS1, modified pET vector)
T1 sequence (P51449 with tags, fused parts or gaps): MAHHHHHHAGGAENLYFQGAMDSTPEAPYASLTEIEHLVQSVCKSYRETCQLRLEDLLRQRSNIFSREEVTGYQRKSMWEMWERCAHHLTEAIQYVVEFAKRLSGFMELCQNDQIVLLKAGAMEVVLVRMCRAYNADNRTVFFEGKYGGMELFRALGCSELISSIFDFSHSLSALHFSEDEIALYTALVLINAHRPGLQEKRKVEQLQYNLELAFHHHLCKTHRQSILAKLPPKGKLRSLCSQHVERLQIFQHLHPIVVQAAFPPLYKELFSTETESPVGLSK
Procedure: This approach is applicable to a wide variety of systems, and rigorous in theoretical interpretation through quantitation of equilibrium binding constants (KD).
The shift in the melting point described as a ΔTm is proportional to the concentration and affinity of the ligand.
RORγt ThermoFluor® Assay Construct
Protein and compound solutions are dispensed into black 384-well polypropylene PCR microplates (Abgene) and overlayed with silicone oil (1 μL Fluka, type DC 200) to prevent evaporation.
Fluorescence was measured by continuous illumination with UV light (Hamamatsu LC6) supplied via fiber optic and filtered through a band-pass filter (380-400 nm; >6 OD cutoff). Fluorescence emission of the entire 384-well plate was detected by measuring light intensity using a CCD camera (Sensys, Roper Scientific) filtered to detect 500±25 nm, resulting in simultaneous and independent readings of all 384 wells. Images were collected at each temperature, and the sum of the pixel intensity in a given area of the assay plate was recorded versus temperature. Reference wells contained RORγt without compounds, and the assay conditions were as follows: • 0.065 mg/mL RORγt • 60 μM 1,8-ANS • 100 mM Hepes, pH 7.0 • 10 mM NaCl • 2.5 mM GSH • 0.002% Tween-20
Project compounds were arranged in a pre-dosed mother plate (Greiner Bio-one) wherein compounds are serially diluted in 100% DMSO by 1:2 from a high concentration of 10 mM over 12 columns within a series (column 12 is a reference well containing DMSO, no compound).
The compounds were robotically dispensed directly into assay plates (1×=[…]) using a Hummingbird capillary liquid handling instrument (Digilab). Following compound dispense, protein and dye in buffer was added to achieve the final assay volume of 3 μL, followed by 1 μL of silicone oil.

[2] = biological target: T2, human RORγt LBD (Homo sapiens, UniProt P51449); assay: RORγt reporter assay (GAL4-RORγt LBD luciferase in HEK293T cells); assay type: cell-based; conditions: for pIC50: HEK293T cells, 24 hours compound treatment; for inhibition at 6 µM: HEK-293T, read-out: RORγt reporter Assay, % inhibition @ 6 μM, HEK293T cells, 6 μM compound
T2 construct: expressed in transfected cells
T2 sequence (P51449 258-518): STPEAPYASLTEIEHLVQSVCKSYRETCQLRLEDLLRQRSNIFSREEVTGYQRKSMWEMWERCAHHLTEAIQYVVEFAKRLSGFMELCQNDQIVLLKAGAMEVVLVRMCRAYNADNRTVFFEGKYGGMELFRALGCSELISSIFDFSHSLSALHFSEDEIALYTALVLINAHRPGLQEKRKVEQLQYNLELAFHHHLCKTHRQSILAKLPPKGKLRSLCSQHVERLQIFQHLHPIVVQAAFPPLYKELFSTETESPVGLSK
From the text: A reporter assay was used to test functional activity of RORγt modulatory compounds on transcriptional activation driven by the RORγt LBD. Cells used in the assay were co-transfected with two constructs. The first construct, pBIND-RORγt LBD, contained the wild type human RORγt LBD fused to the DNA binding domain of the GAL4 protein. The second construct, pGL4.31 (Promega Cat no. C935A), contained multiple GAL4 responsive DNA elements upstream of firefly luciferase. […] The mutant construct was called pBIND-RORγt-AF2.
The pBIND vector contains the GAL4 DNA Binding Domain (GAL4 DBD) and the renilla luciferase gene under control of the SV40 promoter. Renilla luciferase expression serves as a control for transfection efficiency and cell viability.
The reporter assay was performed by transiently transfecting HEK293T cells with 5 ng of pBIND-RORγt LBD or pBIND-RORγt LBD-AF2 and 5 μg pGL4.31 (Promega Cat no. C935A) using Fugene 6 (Invitrogen Cat no. E2691) at a 1:6 ratio of DNA:Fugene 6 in a T-75 flask in which cells were at least 80% confluent. Twenty four hours after bulk transfection, cells were plated into 96-well plates at 50,000 cells/well in phenol-red free DMEM containing 5% Lipid Reduced FCS and Pen/Strep. Six hours after plating, cells were treated with compounds for 24 hours. Media was removed and cells were lysed with 50 μL 1× Glo Lysis Buffer (Promega). Dual Glo Luciferase Reagent (50 μL/well) was then added and firefly luciferase luminescence was read on an Envision after a ten minute incubation. Finally, Stop and Glo reagent (50 μL/well) was added and renilla luciferase luminescence was read on an Envision after a ten minute incubation. To calculate the effect of compounds on RORγt activity, the ratio of firefly to renilla luciferase was determined and plotted against compound concentration. Agonist compounds increase RORγt-driven luciferase expression, and antagonist or inverse agonist compounds decrease luciferase expression.

Compound	pKd [1]	pIC50 [2]	inhibition at 6 µM [2]
CN(C)CCN(C)c1nc2ccc(C(O)(c3ccncc3)c3cncn3C)cc2c(Cl)c1-c1ccccc1 (stereo not drawn) [Example 64, (4-Chloro-2-{[2-(dimethylamino)ethyl](methyl)amino}-3-phenylquinolin-6-yl)(1-methyl-1H-imidazol-5-yl)pyridin-4-ylmethanol•TFA]	6.30	~5.40	87%
Cn1cncc1C(O)(c1ccncc1)c1ccc2nc(N3CCC(O)CC3)c(-c3ccccc3)c(Cl)c2c1 (stereo not drawn) [Example 72, 1-{4-Chloro-6-[hydroxy(1-methyl-1H-imidazol-5-yl)pyridin-4-ylmethyl]-3-phenylquinolin-2-yl}piperidin-4-ol•TFA]	5.07	~5.70	83%
COC1CCN(c2nc3ccc(C(O)(c4ccncc4)c4cncn4C)cc3c(Cl)c2-c2ccccc2)CC1 (stereo not drawn) [Example 75, [4-Chloro-2-(4-methoxypiperidin-1-yl)-3-phenylquinolin-6-yl](1-methyl-1H-imidazol-5-yl)pyridin-4-ylmethanol•TFA]	6.38	~5.70	88%
Cn1cncc1C(O)(c1ccncc1)c1ccc2nc(N3CCN(c4ccccc4)CC3)c(-c3ccccc3)c(Cl)c2c1 (stereo not drawn) [Example 77, [4-Chloro-3-phenyl-2-(4-phenylpiperazin-1-yl)quinolin-6-yl](1-methyl-1H-imidazol-5-yl)pyridin-4-ylmethanol•TFA]	5.96	~5.40	75%
CCCCc1c(-c2ccccc2)c(Cl)nc2ccc(C(O)(c3ccncc3)c3cncn3C)cc12 (stereo not drawn) [Example 78, (4-Butyl-2-chloro-3-phenylquinolin-6-yl)(1-methyl-1H-imidazol-5-yl)pyridin-4-ylmethanol•TFA]	6.57	~5.70	92%
COc1nc2ccc(C(O)(c3cccnc3)c3cccc(Cl)c3)cc2c(OC)c1-c1ccccc1 (stereo not drawn) [Example 79, (3-Chlorophenyl)(2,4-dimethoxy-3-phenylquinolin-6-yl)pyridin-3-ylmethanol•TFA]	6.29	5.92	73%
CCOc1nc2ccc(C(O)(c3cccnc3)c3cccc(Cl)c3)cc2c(Cl)c1-c1ccccc1 (stereo not drawn) [Example 81, (4-Chloro-2-ethoxy-3-phenylquinolin-6-yl)(3-chlorophenyl)pyridin-3-ylmethanol•TFA]	6.77	6.49	93%
CCOc1nc2ccc(C(O)(c3ccncc3)c3cncn3C)cc2c(OCC)c1-c1ccccc1 (stereo not drawn) [Example 82, (2,4-Diethoxy-3-phenylquinolin-6-yl)(1-methyl-1H-imidazol-5-yl)pyridin-4-ylmethanol•TFA]	6.25	~5.40	71%
CCCCc1c(-c2ccccc2)cnc2ccc(C(O)(c3ccncc3)c3cncn3C)cc12 (stereo not drawn) [Example 83, (4-Butyl-3-phenylquinolin-6-yl)(1-methyl-1H-imidazol-5-yl)pyridin-4-ylmethanol•TFA]	5.38	< 5.22	-3%
CC(C)Oc1c(-c2ccccc2)c(Cl)nc2ccc(C(O)(c3ccncc3)c3cncn3C)cc12 (stereo not drawn) [Example 85, [2-Chloro-4-(1-methylethoxy)-3-phenylquinolin-6-yl](1-methyl-1H-imidazol-5-yl)pyridin-4-ylmethanol•TFA]	6.89	6.19	92%
CC(C)(C)OC(=O)N1CCC(C(O)(c2cccnc2)c2ccc3nc(Cl)c(-c4ccccc4)c(Cl)c3c2)CC1 (stereo not drawn) [Example 91, tert-Butyl 4-[(2,4-dichloro-3-phenylquinolin-6-yl)(hydroxy)pyridin-3-ylmethyl]piperidine-1-carboxylate]	6.66	6.70	97%
OC(c1cccnc1)(c1ccc2nc(Cl)c(-c3ccccc3)c(Cl)c2c1)C1CCCNC1 (stereo not drawn) [Example 93, (2,4-Dichloro-3-phenylquinolin-6-yl)(piperidin-3-yl)pyridin-3-ylmethanol•TFA]	5.92	< 5.22	49%
CN1CCCC(C(O)(c2cccnc2)c2ccc3nc(Cl)c(-c4ccccc4)c(Cl)c3c2)C1 (stereo not drawn) [Example 94, (2,4-Dichloro-3-phenylquinolin-6-yl)(1-methylpiperidin-3-yl)pyridin-3-ylmethanol•TFA]	5.62	< 5.22	43%
CCc1nc2ccc(C(O)(c3ccncc3)c3cncn3C)cc2c(CC)c1-c1ccccc1 (stereo not drawn) [Example 97, (2,4-Diethyl-3-phenylquinolin-6-yl)(1-methyl-1H-imidazol-5-yl)pyridin-4-ylmethanol•TFA]	7.28	6.24	100%
CCN(CC)c1c(-c2ccccc2)c(Cl)nc2ccc(C(O)(c3cccnc3)c3cccc(Cl)c3)cc12 (stereo not drawn) [Example 101, [2-Chloro-4-(diethylamino)-3-phenylquinolin-6-yl](3-chlorophenyl)pyridin-3-ylmethanol•TFA]	5.60	6.19	94%
CCN(CC)c1nc2ccc(C(O)(c3cccnc3)c3cccc(Cl)c3)cc2c(C)c1-c1ccccc1 (stereo not drawn) [Example 103, (3-Chlorophenyl)[2-(diethylamino)-4-methyl-3-phenylquinolin-6-yl]pyridin-3-ylmethanol•TFA]	5.85	5.66	85%
CCN(CC)c1nc2ccc(C(O)(c3cccnc3)c3cccc(Cl)c3)cc2c(OC)c1-c1ccccc1 (stereo not drawn) [Example 106, (3-Chlorophenyl)[2-(diethylamino)-4-methoxy-3-phenylquinolin-6-yl]pyridin-3-ylmethanol•TFA]	5.89	5.64	75%
CN(C)c1nc2ccc(C(O)(c3ccncc3)c3cncn3C)cc2c(O)c1-c1ccccc1 (stereo not drawn) [Example 108, 2-(Dimethylamino)-6-[hydroxy(1-methyl-1H-imidazol-5-yl)pyridin-4-ylmethyl]-3-phenylquinolin-4-ol•TFA]	6.48	5.96	90%
OC(c1ccc(C(F)(F)F)nc1)(c1cccc(Cl)c1)c1ccc2nc(Cl)c(-c3ccccc3)c(Cl)c2c1 (stereo not drawn) [Example 111, (3-Chlorophenyl)(2,4-dichloro-3-phenylquinolin-6-yl)(6-(trifluoromethyl)pyridin-3-yl)methanol]	6.19	6.00 and ~5.70	77%
